# System: U266 cells
# Test: HLA class I ligand presentation upon carfilzomib treatment on U266 cells (LC-MS/MS)
# Type: cell-based, human
# Set-up: key to modulation upon carfilzomib-treatment 24 #1 / modulation upon carfilzomib-treatment 24 #2 / modulation upon carfilzomib-treatment 24 #3 / modulation upon carfilzomib-treatment 48 #1 / modulation upon carfilzomib-treatment 48 #2 / modulation upon carfilzomib-treatment 48 #3: −1: significantly down-modulated; 0: not signifcant/not detected; 1: significantly up-modulated
# Settings: U266 cells, vs mock-treated controls; for modulation upon carfilzomib-treatment 24 #1 / modulation upon carfilzomib-treatment 24 #2 / modulation upon carfilzomib-treatment 24 #3: 24 h after carfilzomib treatment (100 nM, 1 h); for modulation upon carfilzomib-treatment 24 #1 / modulation upon carfilzomib-treatment 48 #1: biological replicate #1; for modulation upon carfilzomib-treatment 24 #2 / modulation upon carfilzomib-treatment 48 #2: biological replicate #2; for modulation upon carfilzomib-treatment 24 #3 / modulation upon carfilzomib-treatment 48 #3: biological replicate #3; for modulation upon carfilzomib-treatment 48 #1 / modulation upon carfilzomib-treatment 48 #2 / modulation upon carfilzomib-treatment 48 #3: 48 h after carfilzomib treatment (100 nM, 1 h)
# Description: HLA class I and II molecules were isolated using standard immunoaffinity purification as described using the pan-HLA class I specific mAb W6/32, the pan-HLA class II specific mAb T039 and the HLA-DR specific mAB L243 (produced in house).
# HLA ligand extracts were analyzed in 5 technical replicates as described previously. In brief, peptide samples were separated by nanoflow HPLC (RSLCnano, ThermoFisher) using a 50 μm×25 cm PepMap RSLC column (Thermo Fisher) and a gradient ranging from 2.4 to 32.0% acetonitrile over the course of 90 min. Eluting peptides were analyzed in an online coupled LTQ Orbitrap XL mass spectrometer (Thermo Fisher) using a top 5 CID (collision induced dissociation) fragmentation method.
# Data processing was performed as described previously. In brief, the Mascot search engine (Mascot 2.2.04; Matrix Science, London, UK) was implemented to search the human proteome as comprised in the Swiss-Prot database (20,279 reviewed protein sequences, September 2013) without enzymatic restriction. Potential mutated HLA ligands were searched implementing a database containing the human proteome concatenated with proteins containing single amino acid variants (SAVs) listed in the COSMIC database (http://cancer.sanger.ac.uk/cosmic/). Only recurrent SAVs described in 2 or more samples of hematological origin were included. Oxidized methionine was allowed as a dynamic modification. The false discovery rate was estimated using the Percolator algorithm and set to 5%. Peptide lengths were limited to 8-12 amino acids for HLA class I and 12-25 amino acids for HLA class II. Protein inference was disabled, allowing for multiple protein annotations of peptides. HLA annotation was performed using SYFPEITHI [46] or an extended in-house database. Experimental validation of peptide identifications and HLA annotations was performed by mass spectrometric and functional characterization of synthetic peptides for a subset of peptides.
# The inventors quantitatively assessed HLA class I ligand presentation during proteasome inhibitor therapy. Observed was a considerable plasticity of the HLA class I ligandome after treatment with carfilzomib with 17.9±1.1% of MM.1S ligands and 11.2±0.7% of U266 ligands (mean of three biological replicates ±s.d.) showing significant modulation (fold-change ≥4, Po0.01 after Benjamini-Hochberg correction) at t24 h compared with mock-treated controls. Briefly, Cultured MCLs (MM.1S and U266) and primary myeloma samples were incubated with carfilzomib (100 nM, Kyprolis®, available, e.g., from Onyx Pharmaceuticals, Inc.) as an example for a proteasome inhibitor for a 1-h period, followed by three washes in PBS (Gibco) and recultured for additional 24 or 48 h. Controls were incubated with vehicle control (glucose 5%) for 1 h, followed by identical washing and incubation for 24 or 48 h. Experiments were conducted in three biological replicates where indicated.
Sequence,modulation upon carfilzomib-treatment 24 #1,modulation upon carfilzomib-treatment 24 #2,modulation upon carfilzomib-treatment 24 #3,modulation upon carfilzomib-treatment 48 #1,modulation upon carfilzomib-treatment 48 #2,modulation upon carfilzomib-treatment 48 #3
RPRPPVLSV,0,0,0,0,0,0
IIFDRPLLY,0,0,0,0,0,−1
SRGDFVVEY,0,−1,0,0,0,−1
KPSTKALVL,0,0,0,0,0,0
SPYLRPLTL,0,0,0,0,0,0
SPRLSLLYL,0,0,0,0,0,0
KLPLPLPPRL,0,0,0,0,0,0
RQFWTRTKK,0,0,0,0,0,0
ILWETVPSM,0,0,0,0,0,0
GEVAPSMFL,0,0,0,0,0,0
KLSSLIILM,0,0,0,0,0,0
RPGPPTRPL,0,0,0,0,0,0
IESHPDNAL,0,0,0,0,0,0
SESLPVRTL,0,0,0,0,0,0
ALWGRTTLK,0,0,0,0,0,0
GEVQDLLVRL,0,0,0,0,0,0
APRHPSTNSLL,0,1,0,1,1,0
RVFPYSVFY,−1,0,0,−1,−1,−1
SVYSPVKKK,0,0,−1,0,0,0
KPKDPLKISL,−1,−1,−1,0,−1,−1
SPALKRLDL,0,0,0,0,0,0
PELGPLPAL,0,0,0,0,0,0
KILKPVKKK,0,0,0,0,0,0
REEGTPLTL,0,0,0,0,0,0
SPRQALTDF,0,0,0,0,0,0
GETAFAFHL,0,0,0,0,0,0
LLFPYILPPK,0,0,0,0,0,0
RVNKVIIGTK,0,0,0,0,0,0

# Reference: patent US10906938B2, “Cell epitopes and combination of cell epitopes for use in the immunotherapy of myeloma and other cancers” (Immatics Biotechnologies GmbH, priority 2015, dated 2021)
